According to DBAASP:
≈ marks a conversion by molar mass, not a printed value.

Columns and labels:
Assay in all cases: ≥ marks a high value that may be exact or a test limit, other limits are often not marked, values filed in µg/mL are converted to µM
[1] = test system: Staphylococcus aureus ATCC 33592
Candida krusei ATCC 6258 = test system: Candida krusei ATCC 6258
[2] = test system: Candida albicans ATCC 90028
[3] = test system: Candida parapsilosis ATCC 22019
Candida albicans SC5314 = test system: Candida albicans SC5314
Candida albicans = test system: Candida albicans
Salmonella typhimurium = test system: Salmonella typhimurium
Cryptococcus neoformans = test system: Cryptococcus neoformans
Streptococcus mutans = test system: Streptococcus mutans
Serratia marcescens = test system: Serratia marcescens
Streptococcus pneumoniae = test system: Streptococcus pneumoniae
Bacillus subtilis = test system: Bacillus subtilis
Saccharomyces cerevisiae = test system: Saccharomyces cerevisiae
Pseudomonas putida = test system: Pseudomonas putida
Escherichia coli = test system: Escherichia coli
Staphylococcus aureus = test system: Staphylococcus aureus
Bacillus megaterium Bm11 = test system: Bacillus megaterium Bm11
Proteus mirabilis = test system: Proteus mirabilis
[4] = test system: Staphylococcus aureus ATCC 25923
[5] = test system: Salmonella enterica subsp. enterica serovar Typhimurium ATCC 14028
Escherichia coli ML-35 = test system: Escherichia coli ML-35
[6] = test system: Streptococcus mutans ATCC 25175
[7] = test system: Staphylococcus aureus ATCC 15752
[8] = test system: Escherichia coli ATCC 27325
[9] = test system: Salmonella enterica subsp. enterica serovar Enteritidis ATCC 13076
[10] = test system: Cryptococcus neoformans ATCC 34881
[11] = test system: Candida albicans ATCC 10231
[12] = test system: Saccharomyces cerevisiae ATCC 44774
[13] = test system: Bacillus subtilis ATCC 62037
[14] = test system: Pseudomonas putida ATCC 17426
[15] = test system: Enterococcus faecalis ATCC 29212
Escherichia coli UB1005 = test system: Escherichia coli UB1005
Escherichia coli K99 = test system: Escherichia coli K99
[16] = test system: Salmonella enterica subsp. enterica serovar Typhimurium C77-31
[17] = test system: Bacillus subtilis CMCC 63501
[18] = test system: Staphylococcus aureus ATCC 29213
[19] = test system: Escherichia coli ATCC 25922
[20] = test system: Salmonella enterica subsp. enterica serovar Pullorum C79-13
Escherichia coli K88 = test system: Escherichia coli K88
[21] = test system: Staphylococcus epidermidis ATCC 12228
Escherichia coli 078 = test system: Escherichia coli 078
[22] = test system: Candida tropicalis ATCC 13803

How did the MIC [1] turn out when `CC[C@H](C)[C@H](NC(=O)[C@H](Cc1c[nH]c2ccccc12)NC(C)=O)C(=O)N[C@@H](CCCCN)C(=O)N[C@@H](CCCN=C(N)N)C(=O)N[C@@H](CC(C)C)C(=O)N[C@@H](CC(N)=O)C(=O)N[C@@H](CO)C(=O)N[C@@H](Cc1c[nH]c2ccccc12)C(=O)N[C@@H](CC(C)C)C(=O)N[C@@H](CCCN=C(N)N)C(=O)N[C@@H](CCCCN)C(N)=O` [WIKRLNSWLRK] was run?
Its MIC is no less than 32 µM.

`CC[C@H](C)[C@H](NC(=O)[C@@H](NC(=O)CN)C(C)C)C(=O)N[C@@H](CCCCN)C(=O)N[C@@H](C)C(=O)N[C@@H](C)C(=O)N[C@@H](CCCCN)C(=O)N[C@@H](CCCCN)C(=O)N[C@H](C(=O)N[C@H](C(=O)N[C@@H](CC(N)=O)C(=O)N[C@H](C(=O)N[C@@H](CC(C)C)C(=O)N[C@@H](CCCCN)C(=O)N[C@@H](CC(N)=O)C(=O)N[C@@H](CC(C)C)C(=O)N[C@@H](Cc1ccccc1)C(N)=O)C(C)C)C(C)C)C(C)C` [GVIKAAKKVVNVLKNLF] was tested. Which MIC (Candida krusei ATCC 6258) did it give?
Its MIC is no less than 34.8 µM.

And the MIC [2]?
The MIC was no less than 69.5 µM.

And the MIC [3]?
The MIC was no less than 34.8 µM.

And the MIC (Candida albicans SC5314)?
Its MIC is no less than 34.8 µM.

For `CC(C)C[C@H](NC(=O)CNC(=O)[C@H](CCCCN)NC(=O)[C@@H](N)CCCN=C(N)N)C(=O)N[C@@H](CCC(N)=O)C(=O)N[C@@H](CCCCN)C(=O)N[C@@H](CC(C)C)C(=O)N[C@H](C(=O)NCC(=O)N[C@@H](CCCN=C(N)N)C(=O)N[C@H](C(=O)N[C@@H](Cc1cnc[nH]1)C(=O)N[C@@H](CCCN=C(N)N)C(=O)N[C@@H](CC(C)C)C(=O)N[C@@H](CC(C)C)C(=O)N[C@@H](CCCN=C(N)N)C(=O)N[C@@H](CCCCN)C(=O)O)C(C)C)C(C)C` [RKGLQKLVGRVHRLLRK], which MIC (Candida albicans) is on record?
The MIC was 7.78 µM (≈ 16 µg/mL).

And the MIC (Salmonella typhimurium)?
The MIC was 1.94 µM (≈ 4 µg/mL).

What about the MIC (Cryptococcus neoformans) of the same compound?
Its MIC is 3.89 µM (≈ 8 µg/mL).

What about the MIC (Streptococcus mutans) of the same compound?
Its MIC is 15.6 µM (≈ 32 µg/mL).

What about the MIC (Serratia marcescens) of the same compound?
The MIC was 15.6 µM (≈ 32 µg/mL).

And the MIC (Streptococcus pneumoniae)?
Its MIC is 7.78 µM (≈ 16 µg/mL).

What about the MIC (Bacillus subtilis) of the same compound?
Its MIC is 7.78 µM (≈ 16 µg/mL).

What about the MIC (Saccharomyces cerevisiae) of the same compound?
Its MIC is 1.94 µM (≈ 4 µg/mL).

And the MIC (Pseudomonas putida)?
Its MIC is 7.78 µM (≈ 16 µg/mL).

What about the MIC (Escherichia coli) of the same compound?
The MIC was 7.78 µM (≈ 16 µg/mL).

And the MIC (Staphylococcus aureus)?
The MIC was 7.78 µM (≈ 16 µg/mL).

With `CC[C@H](C)[C@H](NC(=O)CN)C(=O)N[C@@H](CC(C)C)C(=O)N[C@@H](CO)C(=O)N[C@@H](CCCCN)C(=O)N[C@@H](CC(C)C)C(=O)NCC(=O)N[C@@H](CCCCN)C(=O)N[C@@H](C)C(=O)N[C@@H](CC(C)C)C(=O)N[C@@H](CCCCN)C(=O)N[C@@H](CCCCN)C(=O)N[C@@H](C)C(=O)N[C@@H](C)C(=O)N[C@@H](CCCCN)C(=O)N[C@@H](Cc1cnc[nH]1)C(=O)N[C@@H](C)C(=O)N[C@@H](C)C(=O)N[C@@H](CCCCN)C(=O)N[C@@H](C)C=O` [GILSKLGKALKKAAKHAAKA] as the compound, how does the MIC (Bacillus megaterium Bm11) read?
Its MIC is 4 µM (≈ 7.95 µg/mL).

And the MIC (Proteus mirabilis)?
Its MIC is no less than 32 µM.

And the MIC [4]?
Its MIC is 8 µM (≈ 15.9 µg/mL).

And the MIC [5]?
The MIC was 8 µM (≈ 15.9 µg/mL).

And the MIC (Escherichia coli)?
Its MIC is 4 µM (≈ 7.95 µg/mL).

What about the MIC (Staphylococcus aureus) of the same compound?
The MIC was 2 µM (≈ 3.98 µg/mL).

What about the MIC (Escherichia coli ML-35) of the same compound?
The MIC was 8 µM (≈ 15.9 µg/mL).

How did the MIC [6] turn out when `CC(C)C[C@H](NC(=O)CNC(=O)[C@H](C)NC(=O)[C@@H](N)CCCN=C(N)N)C(=O)N[C@@H](CCC(N)=O)C(=O)N[C@@H](Cc1ccccc1)C(=O)N1CCC[C@H]1C(=O)N[C@H](C(=O)NCC(=O)N[C@@H](CCCN=C(N)N)C(=O)N[C@@H](CC(C)C)C(=O)N[C@@H](CC(C)C)C(=O)N[C@@H](CCCN=C(N)N)C(=O)N[C@@H](CCCN=C(N)N)C(=O)N[C@@H](CC(C)C)C(=O)N[C@@H](CC(C)C)C(=O)N[C@@H](CCCN=C(N)N)C(=O)N[C@@H](CCCN=C(N)N)C(=O)N[C@@H](CC(C)C)C(=O)N[C@@H](CC(C)C)C(=O)N[C@@H](CCCN=C(N)N)C(=O)O)C(C)C` [RAGLQFPVGRLLRRLLRRLLR] was run?
Its MIC is 0.781 µM (≈ 2 µg/mL).

What about the MIC (Candida albicans) of the same compound?
Its MIC is 0.781 µM (≈ 2 µg/mL).

What about the MIC (Salmonella typhimurium) of the same compound?
Its MIC is 0.391 µM (≈ 1 µg/mL).

And the MIC [7]?
The MIC was 0.781 µM (≈ 2 µg/mL).

What about the MIC [8] of the same compound?
The MIC was 0.391 µM (≈ 1 µg/mL).

And the MIC [9]?
Its MIC is 0.781 µM (≈ 2 µg/mL).

What about the MIC (Cryptococcus neoformans) of the same compound?
The MIC was 0.391 µM (≈ 1 µg/mL).

And the MIC (Streptococcus mutans)?
The MIC was 0.195 µM (≈ 0.5 µg/mL).

And the MIC (Serratia marcescens)?
The MIC was 0.391 µM (≈ 1 µg/mL).

And the MIC [10]?
The MIC was 0.781 µM (≈ 2 µg/mL).

What about the MIC [11] of the same compound?
The MIC was 0.391 µM (≈ 1 µg/mL).

And the MIC (Streptococcus pneumoniae)?
Its MIC is 0.391 µM (≈ 1 µg/mL).

And the MIC (Bacillus subtilis)?
Its MIC is 0.391 µM (≈ 1 µg/mL).

What about the MIC (Saccharomyces cerevisiae) of the same compound?
Its MIC is 1.56 µM (≈ 4 µg/mL).

What about the MIC (Pseudomonas putida) of the same compound?
Its MIC is 0.781 µM (≈ 2 µg/mL).

And the MIC (Escherichia coli)?
Its MIC is 0.391 µM (≈ 1 µg/mL).

And the MIC [12]?
Its MIC is 0.781 µM (≈ 2 µg/mL).

What about the MIC [13] of the same compound?
Its MIC is 0.391 µM (≈ 1 µg/mL).

And the MIC (Staphylococcus aureus)?
Its MIC is 0.391 µM (≈ 1 µg/mL).

And the MIC [14]?
Its MIC is 0.781 µM (≈ 2 µg/mL).

Which results are given for `CC[C@H](C)[C@H](NC(=O)[C@H](Cc1c[nH]c2ccccc12)NC(=O)[C@H](CCCCN)NC(=O)[C@H](Cc1c[nH]c2ccccc12)NC(=O)[C@@H](NC(=O)[C@H](Cc1c[nH]c2ccccc12)NC(=O)CNC(=O)[C@@H](NC(=O)[C@H](CCCCN)NC(=O)[C@H](CCCCN)NC(=O)[C@H](Cc1c[nH]c2ccccc12)NC(=O)[C@@H](N)CCCN=C(N)N)[C@@H](C)CC)C(C)C)C(N)=O` [RWKKIGWVWKWI]?
MIC [15]: 2 µM (≈ 3.37 µg/mL); MIC (Escherichia coli UB1005): 1 µM (≈ 1.69 µg/mL); MIC (Escherichia coli K99): 2 µM (≈ 3.37 µg/mL); MIC [16]: 4 µM (≈ 6.74 µg/mL); MIC [17]: 1 µM (≈ 1.69 µg/mL); MIC [18]: 4 µM (≈ 6.74 µg/mL); MIC [4]: 2 µM (≈ 3.37 µg/mL); MIC [19]: 2 µM (≈ 3.37 µg/mL); MIC [20]: 1 µM (≈ 1.69 µg/mL); MIC (Escherichia coli K88): 2 µM (≈ 3.37 µg/mL); MIC [21]: 4 µM (≈ 6.74 µg/mL); MIC (Escherichia coli 078): 2 µM (≈ 3.37 µg/mL); MIC [5]: 2 µM (≈ 3.37 µg/mL)

Which MIC [22] does the source give for `NCCCC[C@H](NC(=O)[C@@H](N)CS)C(=O)N[C@@H](Cc1ccc(O)cc1)C(=O)N[C@@H](CCCN=C(N)N)C(=O)N[C@@H](Cc1c[nH]c2ccccc12)C(=O)N[C@@H](CCCN=C(N)N)C(=O)O` [CKYRWR] here?
The MIC was no less than 220 µM.

What about the MIC [3] of the same compound?
Its MIC is no less than 220 µM.

And the MIC (Candida albicans SC5314)?
The MIC was no less than 439 µM.
